According to patent US20160194299A1 (priority 2013, published 2016):
In brackets after ≈: the same amount, converted by molar mass. Like-named read-outs stand apart in the source and are kept apart here.

Legend:
[1] = target: M. smegmatis DprE1 (DprE1/DprE2 epimerase) (Mycolicibacterium smegmatis, UniProt A0R607); format: biochemical
[2] = system: Mtb; assay: microbe, parasite or virus in culture; format: cell-based, Mycobacterium tuberculosis; conditions: Mycobacterium tuberculosis, read-out: MIC (II)
[3] = system: Mtb; assay: microbe, parasite or virus in culture; format: cell-based, Mycobacterium tuberculosis; conditions: Mycobacterium tuberculosis, read-out: MIC (I)
[4] = system: Mtb; assay: microbe, parasite or virus in culture; format: cell-based, Mycobacterium tuberculosis; conditions: Mycobacterium tuberculosis, read-out: MIC (III)
[5] = in vitro; conditions: African green monkey
[6] = in vitro; conditions: human
[7] = system: exponentially growing virulent Mtb; format: cell-based, Mycobacterium tuberculosis
[8] = system: Mtb in J744.1 murine macrophage cells; assay: microbe, parasite or virus in culture; format: cell-based; conditions: Mycobacterium tuberculosis, 120 h, read-out: MIC50, intracellular CFU assay

Chain of M. smegmatis DprE1 (DprE1/DprE2 epimerase) (A0R607 whole entry): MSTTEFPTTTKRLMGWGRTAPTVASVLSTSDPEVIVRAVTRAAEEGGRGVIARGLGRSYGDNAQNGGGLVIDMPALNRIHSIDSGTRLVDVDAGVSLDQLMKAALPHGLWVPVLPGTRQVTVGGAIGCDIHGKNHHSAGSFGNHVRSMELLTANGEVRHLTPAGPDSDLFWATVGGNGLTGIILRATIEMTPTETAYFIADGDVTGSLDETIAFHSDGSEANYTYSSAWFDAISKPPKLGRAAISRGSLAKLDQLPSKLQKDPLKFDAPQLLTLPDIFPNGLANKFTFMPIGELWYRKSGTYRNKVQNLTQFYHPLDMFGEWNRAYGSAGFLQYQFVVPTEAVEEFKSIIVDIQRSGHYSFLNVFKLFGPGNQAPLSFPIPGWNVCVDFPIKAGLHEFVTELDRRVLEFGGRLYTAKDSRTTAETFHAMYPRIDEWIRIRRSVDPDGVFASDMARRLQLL

Compound | inhibition of conversion of DPR to DPA by DprE1 [1] | MIC [2] [µg/mL] | MIC [3] [µg/mL] | MIC [4] [µg/mL] | CC50 [5] [µg/mL] | CC50 [6] [µg/mL] | drop in CFU compared with TCA1 [7] | MIC50 [8] [µg/mL]
C[C@H]1COC2(CCN(c3nc(=O)c4cc(C(F)(F)F)cc([N+](=O)[O-])c4s3)CC2)O1 [BTZ043] | potently inhibit |  |  |  |  |  |  | 
CCOC(=O)NC(=O)c1ccsc1NC(=O)c1ccnc(NC(=O)C(C)(C)C)c1 [Compound 60] |  | < 1 | < 1 | > 25 | > 50 | > 50 |  | 
CCOC(=O)NC(=O)c1ccsc1NC(=O)c1ccnc(NC(=O)OC)c1 [Compound 61] |  | < 1 | 1 to 3 (≈ 2.55 to 7.65 µM) | 5 to 25 (≈ 12.7 to 63.7 µM) | > 50 | 25 to 50 (≈ 63.7 to 127 µM) |  | 
CCOC(=O)NC(=O)c1ccsc1NC(=O)c1nc2ccccc2s1 [Compound 1] |  | 1 to 3 (≈ 2.66 to 7.99 µM) | 1 to 3 (≈ 2.66 to 7.99 µM) | > 25 | > 50 | > 50 |  | 
NNC(=O)c1ccncc1 [INH, isoniazid] |  |  |  |  |  |  | comparable drop in CFU over the first seven days | 0.2 (≈ 1.46 µM)
CO[C@H]1/C=C/O[C@@]2(C)Oc3c(C)c(O)c4c(O)c(c(/C=N/N5CCN(C)CC5)c(O)c4c3C2=O)NC(=O)/C(C)=C\C=C\[C@H](C)[C@H](O)[C@@H](C)[C@@H](O)[C@@H](C)[C@H](OC(C)=O)[C@@H]1C [RIF, rifampicin] |  |  |  |  |  |  |  | 2.7 (≈ 3.28 µM)
CCOC(=O)NC(=O)c1ccsc1NC(=O)c1cn2ccccc2n1 [Compound 76] |  | > 3 | 1 to 3 (≈ 2.79 to 8.37 µM) | < 5 | > 50 | > 50 |  | 
CCOC(=O)NC(=O)c1ccsc1NC(=O)c1nc2ccc(Cl)cc2[nH]1 [Compound 72] |  | > 3 | 1 to 3 (≈ 2.55 to 7.64 µM) | 5 to 25 (≈ 12.7 to 63.6 µM) | > 50 | > 50 |  | 
